pIC50: −log10 of the molar value.
Molecular target: T1, Gonadotropin-releasing hormone receptor (Homo sapiens, UniProt P30968)
T1 sequence (P30968 whole entry): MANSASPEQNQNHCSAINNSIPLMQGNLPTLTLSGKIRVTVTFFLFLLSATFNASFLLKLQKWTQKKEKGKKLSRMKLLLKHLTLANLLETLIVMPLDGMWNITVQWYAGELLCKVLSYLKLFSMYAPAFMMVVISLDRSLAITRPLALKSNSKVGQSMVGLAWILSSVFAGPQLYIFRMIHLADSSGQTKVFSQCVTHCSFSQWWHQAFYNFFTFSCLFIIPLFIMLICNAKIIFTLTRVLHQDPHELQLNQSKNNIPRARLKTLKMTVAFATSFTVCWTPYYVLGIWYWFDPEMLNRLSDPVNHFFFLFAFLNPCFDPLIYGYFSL
Test: Inhibitory Activity Assay
Method: GnRH/HEK293 (human embryonic kidney cell 293) cultured cells in the logarithmic growth phase were washed with DPBS (Dulbecco's phosphate buffered saline) buffer, and an appropriate amount of 0.05% EDTA (ethylenediaminetetraacetic acid)-trypsin was added. The cells were placed in a carbon dioxide incubator at 37° C. for digestion for 1-2 minutes, and then removed from the incubator. A medium was added to the cells to terminate the digestion. Cells were dispersed by repeated pipetting and harvested by centrifugation. The cells were seeded into a 384-well Poly-Lysine-Coated. Cell Plate at a density of 20,000 cells per well. […] The fluorescence signal was read. Then 10 μL of the reference compound as an agonist was added, and the fluorescent signal was read. […] The fluorescent signal was read. Then 10 μL of agonist with a concentration of 6×EC50 was added to the cell plate and the fluorescent signal was read.IC50 of the compound to inhibit the calcium flow of gonadotropin-releasing hormone receptor, i.e., the drug concentration when the Ca2+ flow was inhibited by half in the cells stably expressing the GnRH receptor, was calculated. The IC50 of the drug was calculated by GraphPad Prism 5.0 software.

`O=C(O)c1scc2c1C(=O)C(c1cc3c(cc1F)OCC1(CC1)COc1ccc(F)c(F)c1CO3)C(=O)N2` (configuration not stated) [US20240158413, Compound 2] gave a pIC50 of 8.04.

Work on `Cc1c(F)ccc2c1COc1cc(C3C(=O)Nc4csc(C(=O)O)c4C3=O)c(F)cc1OCCCO2` (configuration not stated) [US20240158413, Compound 1] yielded a pIC50 of 8.49.

From BindingDB's records for patent US20240158413 (Soter Biopharma, 2024)
